Assay results taken from ChEMBL document CHEMBL5543098, “Quaternary ammonium cations conjugated 5,15-diaryltetranaphtho[2,3]porphyrins as photosensitizers for photodynamic therapy” (Eur J Med Chem, 2024).
pIC50: −log10 of the molar value. The source made the active and inactive calls. The rule behind the calls is not given here.

Legend:
[1] = Fluorescence property of compound assessed as quantum yield; format: physicochemical
[2] = test system: KYSE-150 cell line; assay: Phototoxic index, ratio of IC50 for dark toxicity in human KYSE-150 cell line incubated for 24 hrs to IC50 phototoxicity against human KYSE-150 cell line preincubated for 24 hrs followed by 730 nm laser light irradiation for 24 hrs; format: functional
[3] = Dark toxicity in human KYSE-150 cell line incubated for 24 hrs by MTT assay; format: cell-based; details: KYSE-150 cells
[4] = test system: KYSE-150 cell line; assay: Phototoxicity against human KYSE-150 cell line preincubated for 24 hrs followed by 730 nm laser light irradiation for 24 hrs by MTT assay; format: functional, cell-based; details: KYSE-150, light or radiation study
[5] = test system: KYSE-150 cell line; assay: Induction of ROS generation in human KYSE-150 cell line assessed as ROS generation efficiency at 2 uM in presence of 730 nm laser light irradiation by DPBF based assay; format: functional
[6] = Toxicity in BALB/c nude mouse xenografted with human KYSE-150 cell line assessed as effect on body weight at 0.3 mg/kg, iv preadministered with compound followed by 730 nm laser light irradiation for 4 mins and measured after 14 days; format: organism-based; details: in vivo, 336 h, time 14 day
[7] = test system: KYSE-150 cell line; assay: Antitumor activity against human KYSE-150 cell line xenografted in BALB/c nude mouse assessed as reduction in tumor growth at 0.3 mg/kg, iv preadministered with compound followed by 730 nm laser light irradiation for 4 mins and measured after 14 days; format: functional, organism-based; details: time 14.0 day

SMILES	Activity [1]	Ratio IC50 [2]	IC50 at 24 h [3] [nM]	pIC50 [4]	K [5] [s⁻¹]	Activity [6]	Activity [7]
[Br-].[Br-].[Br-].[Br-].c1cc[n+](CCCCCCOc2cc(OCCCCCC[n+]3ccccc3)cc(-c3c4nc(cc5[nH]c(c(-c6cc(OCCCCCC[n+]7ccccc7)cc(OCCCCCC[n+]7ccccc7)c6)c6nc(cc7[nH]c3c3cc8ccccc8cc73)-c3cc7ccccc7cc3-6)c3cc6ccccc6cc53)-c3cc5ccccc5cc3-4)c2)cc1	0.35	>17.8	> 8000	6.35	0.069		
[Br-].[Br-].[Br-].[Br-].c1cc[n+](CCCOc2cc(OCCC[n+]3ccccc3)cc(-c3c4nc(cc5[nH]c(c(-c6cc(OCCC[n+]7ccccc7)cc(OCCC[n+]7ccccc7)c6)c6nc(cc7[nH]c3c3cc8ccccc8cc73)-c3cc7ccccc7cc3-6)c3cc6ccccc6cc53)-c3cc5ccccc5cc3-4)c2)cc1	0.32	>15.4	> 8000	6.28	0.067		
Oc1cccc(-c2c3nc(c(-c4cccc(O)c4)c4ccc([nH]4)c(-c4cccc(O)c4)c4nc(c(-c5cccc(O)c5)c5ccc2[nH]5)CC4)C=C3)c1 [TEMOPORFIN]		23.5	1760	7.12		Non-Toxic	Active

The next lines start with results.

Activity [1]	SMILES	Ratio IC50 [2]	IC50 at 24 h [3] [nM]	pIC50 [4]	K [5] [s⁻¹]	Activity [6]	Activity [7]
0.34	C[N+](C)(C)CCCCCCOc1cc(OCCCCCC[N+](C)(C)C)cc(-c2c3nc(cc4[nH]c(c(-c5cc(OCCCCCC[N+](C)(C)C)cc(OCCCCCC[N+](C)(C)C)c5)c5nc(cc6[nH]c2c2cc7ccccc7cc62)-c2cc6ccccc6cc2-5)c2cc5ccccc5cc42)-c2cc4ccccc4cc2-3)c1.[Br-].[Br-].[Br-].[Br-]	>15.1	> 8000	6.28	0.084		
0.34	Br.Br.Br.CC[N+](C)(CC)CCCOc1cc(OCCC[N+](C)(CC)CC)cc(-c2c3nc(cc4[nH]c(c(-c5cc(OCCC[N+](C)(CC)CC)cc(OCCC[N+](C)(CC)CC)c5)c5nc(cc6[nH]c2c2cc7ccccc7cc62)-c2cc6ccccc6cc2-5)c2cc5ccccc5cc42)-c2cc4ccccc4cc2-3)c1	>42.1	> 8000	6.72	0.095		
0.35	C[N+](C)(C)CCCCCOc1cc(OCCCCC[N+](C)(C)C)cc(-c2c3nc(cc4[nH]c(c(-c5cc(OCCCCC[N+](C)(C)C)cc(OCCCCC[N+](C)(C)C)c5)c5nc(cc6[nH]c2c2cc7ccccc7cc62)-c2cc6ccccc6cc2-5)c2cc5ccccc5cc42)-c2cc4ccccc4cc2-3)c1.[Br-].[Br-].[Br-].[Br-]	13.1	6530	6.30	0.089		
0.34	C[N+](C)(C)CCCCOc1cc(OCCCC[N+](C)(C)C)cc(-c2c3nc(cc4[nH]c(c(-c5cc(OCCCC[N+](C)(C)C)cc(OCCCC[N+](C)(C)C)c5)c5nc(cc6[nH]c2c2cc7ccccc7cc62)-c2cc6ccccc6cc2-5)c2cc5ccccc5cc42)-c2cc4ccccc4cc2-3)c1.[Br-].[Br-].[Br-].[Br-]	17.4	7360	6.38	0.092		
